# Results: patent US20060084628A1, “Combination therapy for treating viral infections” (priority 2004, published 2006)
# Read-outs that look alike come from different tables or passages of the source.
# How the values were obtained:
# [1] = tested on: HBV; assay: Efficacy of daily dosing for HBV; type: in vivo, human; details: 5 mg QD dose
# Description: (§1) From the foregoing results, a therapeutic window of Elvucitabine was identified. It has been determined that a 5 mg QD dose is effective for HBV and, therefore, a plasma AUCss/24 of 300 μg·h/L was identified as the efficacy threshold.
# [2] = Hematology (ANC, white blood cell count) in 12 week study in HBV patients; type: in vivo, human
# Description: Pharmacodynamics of Elvucitabine was explored by analysis of hematology (absolute neutrophil count, ANC) data obtained from a 12 week study in HBV patients. FIG. 3 illustrates the change in mean white blood cell count from baseline for three dosages of Elvucitabine (5 mg, 20 mg, and 50 mg), 100 mg 3TC, and placebo. […] FIG. 4 is a graphic representation of the change in absolute neutrophils from baseline for the same study. Table 2 provides absolute neutrophil count at 10^9/L for the three doses resulting in a baseline estimated as the mean ANC of about 4×10^9/L. A 25 percent decrease in the mean ANC corresponds to about 3×10^9/L, the threshold for the start of toxicity.
# [3] = tested on: HIV; assay: In vitro IC50 for HIV; type: cell-based; details: Human immunodeficiency virus 1
# Description: as §1
# [4] = Population PK analysis of plasma and urine data, healthy subjects, 1×20 mg tablet PO (ACH443-011); details: human, in vivo
# Description: The PK model created included an individual compartmental PK analysis using ADAPT-II® and Population PK analysis using an iterative two-stage population modeling technique (IT2S®) of plasma and urine data from a study of healthy subjects, n=29, 1×20 mg tablet PO (ACH443-011). FIG. 1 illustrates the PK model of Elvucitabine according to a three compartment model characterized by two absorption peaks, each associated with a lag (Tlag1 and Tlag2) time and a first order absorption rate constant (Ka1 and Ka2).
# FIG. 2 illustrates an example of individual fit using a Population PK analysis (IT2S).
# [5] = PK/PD relationship: toxicity threshold and therapeutic window (simulated concentrations vs observed ANC); set-up: species or system human
# Excerpt: Pharmacokinetics and pharmacodynamics modeling was used to explore potential dosing regimens for Elvucitabine. A pharmacokinetics (PK) model was developed to describe both the plasma concentration-time data and excreted urinary amounts from previously completed studies with Elvucitabine. With the PK model in hand and pharmacodynamics (PD) results of previously completed studies, the relationship of PK and PD from an efficacy and toxicity standpoint is obtained. From the results of the PK and PD studies, a therapeutic window of Elvucitabine is defined and simulated dosing regimens ranging from 5 mg BID to 100 mg Q1 week were explored using ADAPT II® Pharmacokinetic and Pharmacodynamic Systems Analysis Software. From the simulated dosing regimen results, ten dosing regimens were identified allowing maintenance therapy with Elvucitabine at levels effective against both HIV and HBV while avoiding bone toxicity.
# FIG. 5 provides a plot of the mean observed ANC and a simulated concentration-time profile for the 5 mg QD dose. As shown by the graph, the toxicity threshold is not met by the dosing regimen. As provided in FIG. 6, the 20 mg QD dose crosses the toxicity threshold at about 1008 hours.
# as §1
smiles,measurement,setting,value
"Nc1nc(=O)n([C@H]2C=C[C@@H](CO)O2)cc1F [Elvucitabine, 4-amino-5-fluoro-1-((2R,5 S)-5-(hydroxymethyl)-2,5-dihydrofuran-2-yl)pyrimidin-2(1H)-one]",efficacy for HBV,[1],effective
same,"Absolute Neutrophil Count (ANC), Mean","[2]; 5 mg PO daily (n = 17), Week 0",4.1 10^9/L
same,"Absolute Neutrophil Count (ANC), Mean","[2]; 5 mg PO daily (n = 17), Week 2",3.4 10^9/L
same,"Absolute Neutrophil Count (ANC), Mean","[2]; 5 mg PO daily (n = 17), Week 4",3.4 10^9/L
same,"Absolute Neutrophil Count (ANC), Mean","[2]; 5 mg PO daily (n = 17), Week 8",3.5 10^9/L
same,"Absolute Neutrophil Count (ANC), Mean","[2]; 5 mg PO daily (n = 17), Week 12",3.6 10^9/L
same,"Absolute Neutrophil Count (ANC), Mean","[2]; 20 mg PO daily (n = 20), Week 0",3.8 10^9/L
same,"Absolute Neutrophil Count (ANC), Mean","[2]; 20 mg PO daily (n = 20), Week 2",3.7 10^9/L
same,"Absolute Neutrophil Count (ANC), Mean","[2]; 20 mg PO daily (n = 20), Week 4",3.2 10^9/L
same,"Absolute Neutrophil Count (ANC), Mean","[2]; 20 mg PO daily (n = 20), Week 8",2.8 10^9/L
same,"Absolute Neutrophil Count (ANC), Mean","[2]; 20 mg PO daily (n = 20), Week 12",2.7 10^9/L
same,change in mean white blood cell count from baseline,"[2]; 50 mg (highest dose), HBV patients, FIG. 3",significant decrease
same,"Absolute Neutrophil Count (ANC), Mean","[2]; 50 mg PO daily (n = 19), Week 0",4.1 10^9/L
same,"Absolute Neutrophil Count (ANC), Mean","[2]; 50 mg PO daily (n = 19), Week 2",3.1 10^9/L
same,"Absolute Neutrophil Count (ANC), Mean","[2]; 50 mg PO daily (n = 19), Week 4",2.3 10^9/L
same,"Absolute Neutrophil Count (ANC), Mean","[2]; 50 mg PO daily (n = 19), Week 8",2.2 10^9/L
same,"Absolute Neutrophil Count (ANC), Mean","[2]; 50 mg PO daily (n = 19), Week 12",2.6 10^9/L
same,IC50,"[3]; corresponds to 4.8 nM, read-out: in vitro IC50 for HIV, as concentration",1.08 ng/mL
same,IC50,[3]; read-out: in vitro IC50 for HIV,4.8 nM
same,Vd,[4],1600 L
same,fraction of drug excreted unchanged in urine,[4],about 40%
same,half-life,[4]; distribution (λ2) half-life,30 h
same,half-life,[4]; early distribution (λ1) half-life,0.59 h
same,half-life,[4]; elimination (λz) half-life,175 h
same,CLnr/F,[4]; po,9.51 L/h
same,Fu,[4]; po,39.6%
same,Vc/F,[4]; po,30.6 L
same,Vp1/F,[4]; po,1232 L
same,Vp2/F,[4]; po,369 L
same,oral clearance (CL/F),[4]; po,16 L/h
same,CL renal,"[4]; po, 20 mg",105 mL/min
same,CL/F,"[4]; po, 20 mg",15.8 L/h
same,Vd/F,"[4]; population PK, healthy subjects, 20 mg tablet PO, read-out: Vss/F",1630 L
same,central compartment (plasma) Cmin correlating with onset of toxicity,[5],≥ 23 ng/mL
same,toxicity threshold (mean ANC about 3×10^9/L),"[5]; 5 mg QD, FIG. 5",not met
same,time at which toxicity threshold (mean ANC about 3×10^9/L) is crossed,"[5]; 20 mg QD, FIG. 6",about 1008 hours
same,time at which toxicity threshold (mean ANC about 3×10^9/L) is reached,"[5]; 50 mg QD, FIG. 7",378 hours
same,Cmin for efficacy,"[5]; HIV, based on in vitro IC50",≥ 2 ng/mL
same,plasma AUCss/24 efficacy threshold,[5]; from 5 mg QD effective for HBV,300 ng·h/mL
same,Cmax in deepest (P1) compartment at onset of toxicity (ANC <3×10^9/L),[5]; human,> 40 μg/L
